Measurements published in patent US7425565B2, “Use of benzothiopenes to treat and prevent prostate cancer” (Cedars-Sinai Medical Center, priority 2002, dated 2008).
Entries after “also recorded” stand apart in the source; their conditions may differ. Counter-ions that a name gives are not always drawn.

Key:
[1] = tested on: androgen-independent prostate cancer; assay: Treatment of male patients with androgen-independent prostate cancer (Example 1); type: in vivo, human
Procedure: Three male patients were selected for treatment on the basis of established diagnosis with prostate cancer. All three patients had failed standard androgen withdrawal therapy. Average prostate-specific antigen (“PSA”) levels for each patient at the beginning of treatment was about 20-30 ng/ml. Hormone ablative therapy, in some cases aggressively administered as long as 36 months, had failed, manifested by a continued rise in PSA levels in each patient. […] Each patient continued to receive luteinizing hormone-releasing hormone (“LHRH”)-agonist therapy, despite tumor growth in its presence. This is considered standard therapy, as tumor growth is likely to be more aggressive if testosterone levels were allowed to return to normal in these patients.

[2] = tested on: human prostate tumor cells (CWR22R); assay: Inhibition of tumor growth in androgen-independent xenograft model (CWR22R); type: in vivo, nude mice; details: 0.85 mg/kg daily s.c., after 30 days
Text: The inventor used an androgen-independent xenograft model of human prostate tumor cells (CWR22R) to raise tumors in male and female nude mice. Tumors developed over a period of 2-3 weeks into palpable masses. 10 mice were randomly assigned to a treatment group and 10 mice were assigned to a control group. […] Mice in the control group received an injection of saline solution. After 30 days, tumors from surviving mice were surgically removed and visibly examined. Tumor size was reduced by 60% in mice from the treated group as compared to mice from the control group and female hosts.

[3] = tested on: MSKPC9 tumor xenografts; assay: Growth of androgen independent MSKPC9 tumor xenografts; type: in vivo, nude athymic BALB/c male mice; details: 40 mg/kg 5x/wk p.o., orchiectomized mice
Procedure: Xenograft studies were performed as described in D. B. Agus et al., “Response of prostate cancer to anti-Her-2/neu antibody in androgen-dependent and -independent human xenograft models,” Cancer Res. 59(19):4761-4764 (1999). Orchiectomized seven- to eight-week-old nude athymic BALB/c male mice were obtained from the National Cancer Institute and maintained in pathogen-free conditions. Mice were inoculated subcutaneously (“s.c.”) with minced tumor tissue together with […] reconstituted basement membrane (available from BD Biosciences Discovery Labware; Bedford, Mass.) from the established androgen independent (“AI”) MSKPC9 xenograft cell lines; cell lines are described in M. Nagabhushan et al., “CWR22: the first human prostate cancer xenograft with strongly androgen-dependent and relapsed strains both in vivo and in soft agar,” Cancer Res. 56(13):3042-3046 (1996), and D. B. Agus et al., “Prostate cancer cell cycle regulators: response to androgen withdrawal and development of androgen independence,” J. Natl. Cancer Inst. 91(21):1869-76 (1999).
Tumors were measured twice weekly with vernier calipers, and tumor volumes were calculated by the formula (π/6)×(larger diameter)×(smaller diameter)^2, described in M. F. Press et al., “HER-2/neu gene amplification characterized by fluorescence in situ hybridization: poor prognosis in node-negative breast carcinomas,” J. Clin Oncol. […]

[4] = tested on: PSA; assay: PSA levels in animals with MSKPC9 xenografts (enzymatic immunoassay); type: in vivo, nude athymic BALB/c male mice
Procedure: Levels of PSA in the blood of implanted animals were determined using an enzymatic immunoassay kit (obtained from American Qualex; San Clemente, Calif.). Blood samples were obtained prior to treatment by a small incision in the dorsal tail vein to collect 50 μl of blood using a serum-separator tube, or via a cardiac draw at sacrifice.

[5] = tested on: ER-β mRNA; assay: Real-time RT-PCR of MSKPC9 xenograft tumors, ER-β mRNA; type: in vivo; details: MSKPC9 tumor xenografts, treated vs control
Procedure: Total RNA was extracted from prostate tumors using TRIZOL reagent (available from Invitrogen Corporation; Carlsbad, Calif.). DNase I (obtained from Ambion, Inc.; Austin, Tex.) was used to rid the samples of any extraneous DNA that might interfere with the reaction. The yield was quantified spectrophotometrically. Total RNA was reverse-transcribed into cDNA and PCR was performed in the same reaction by using TAQMAN One-Step RT-PCR Master Mix Reagents Kit (obtained from Applied Biosystems; Foster City, Calif.; hereinafter “Applied Biosystems”). Probes were labeled with 6-FAM on the 5′ end and TAMRA on the 3′ end. β-actin was used as the endogenous control and normalizer. The primer pairs used are depicted in Table 1, as follows:
The PCR cycling conditions were performed for all of the samples as follows: 30 minutes at 48° C. for RT step; 10 minutes at 95° C. for […] GOLD Activation (available from Applied Biosystems); and 40 cycles for the melting (95° C., 15 seconds), and annealing/elongation (60° C. for one minute) steps. PCR reactions for each template were done in triplicate using 1 μg of total mRNA per sample. Each gene-specific primer pair was tested on standard 384-well plates. […]
The comparative Ct method (PE Applied Biosystems) was used to determine relative quantification of gene expression for each gene compared with the β-actin control. […]

[6] = tested on: androgen-independent prostate cancer (AIPC); assay: Clinical study of raloxifene in androgen-independent prostate cancer: response and survival; type: in vivo, human
Text: Between August 2001 and July 2002, twenty-one patients were enrolled into the study at the Prostate Cancer Center of Cedars-Sinai Medical Center in Los Angeles, Calif. Patients who were eligible for the study were men who had histologically confirmed adenocarcinoma of the prostate and confirmed disease progression after hormonal therapy. Patients were required to have progression of disease as evidenced by CT scan or rising PSA on two successive measurements after discontinuation of anti-androgen therapy. In addition, patients receiving androgen receptor-blocking agents as their last form of therapy had to have confirmed disease progression after drug withdrawal. Nonsurgically castrated patients continued to receive LHRH agonist while on study to maintain castrate levels of serum testosterone.
Both patients with measurable disease by either bone scan or CT scan, and evaluable disease evidenced by rising PSA were included in the study. Patients whose only evidence of disease progression was rising PSA had to have an increasing PSA on any two determinations drawn at two least weeks apart, with a greater than 20% increase from the baseline value. Other eligibility criteria included: Karnofsky performance status >70%, life expectancy >12 weeks (with at least four weeks since major surgery or radiation therapy), and at least 12 weeks for treatment with strontium-89, rhenium, or samarium-153. […] Patients with a history of uncontrolled or severe cardiovascular disease (e.g., inadequately uncontrolled hypertension, congestive heart failure, angina, or myocardial infarction within the previous year), a history of thromboembolism, a history of biliary colic or untreated cholethiasis were excluded. Patients with brain metastasis, clinical signs of brain involvement or leptomeningeal disease, dementia, psychoses, or other significant impairment of mental status were excluded. Patients with a history of another malignancy during the past five years (other than non-melanomatous skin cancer or in situ stage T1a bladder cancer), patients with active infections requiring antibiotics, or patients on concurrent commercial or investigational antineoplastic therapies were excluded. No concomitant use of prostata or saw palmetto was permitted.
(§1) Response to therapy was assessed after the first two months of therapy and then monthly thereafter. Toxicity was assessed monthly at each study visit. […] A partial response (“PR”) required a decrease by >50% of the sum of the products of the perpendicular diameters for all measurable lesions lasting at least one month, no appearance of new lesions, and a reduction in serum PSA by >50% on two consecutive occasions at least one month apart. For patients being evaluated by bone metastases, a PR required a reduction in serum PSA by >50% on two consecutive occasions at least one month apart an improvement in bone scan (reduction in intensity or size of one or more metastatic foci and no new foci of radionuclide uptake unless due to […] healing documented on plain radiograph, CT scan, or MRI scan). During this time there should have been no cancer-associated deterioration in weight, performance status, or symptoms. Progressive disease (“PD”) was defined by any of the following: (1) increase >25% in the sum of the products of the perpendicular diameters of bidimensionally measurable lesions in the sum of the transverse diameters of unidimensionally measurable lesions, (2) the appearance of new lesions, and (3) by the increase in serum PSA >50% over baseline as documented on two successive measurements >28 days apart. […] For PD to be scored by PSA criteria alone, a confirmatory PSA determination was required and obtained two weeks after the value representing a >50% increase. Patients who had improvement in one objective parameter while meeting the criteria for PD by another parameter were scored as having PD.
Treatment was administered with monthly lab draws and follow-up visits with the physician. […]

[7] = Clinical study of raloxifene: toxicity (NCI Common Toxicity Criteria, v2.0); type: in vivo, human
Procedure: as §1
Treatment was administered with monthly lab draws and follow-up visits with the physician. […] Patients received 1 mg oral COUMADIN daily (or 0.5 mg oral COUMADIN daily if patients were already taking aspirin).
The reported urinary tract infection (“UTI”) (1) and hematuria (1) were thought to be related to the patient's underlying disease. Two grade 3 events were reported: a grade 3 arthralgia/myalgia thought to be related to the patient's recent injury, and a grade 3 elevated creatinine that was attributed to the patient's disease progression.

[8] = EVISTA package insert; cited from earlier work
[9] = tested on: androgen-independent prostate cancer; details: several previous clinical trials; cited from earlier work

O=C(c1ccc(OCCN2CCCCC2)cc1)c1c(-c2ccc(O)cc2)sc2cc(O)ccc12 [raloxifene HCl, Raloxifene hydrochloride]
bone scan of the longest treated patient ([1]; 17 months since beginning therapy): improvement in their bone scan | continued PSA of the longest treated patient ([1]; 17 months since beginning therapy, 60 mg/day orally): < 0.4 ng/mL | decline of PSA levels ([1]; three patients, 60 mg orally once a day for a minimum of 30 days, continued LHRH-agonist therapy): > 50% | reduction of tumor size vs control group [2]: 60%

O=C(c1ccc(OCCN2CCCCC2)cc1)c1c(-c2ccc(O)cc2)sc2cc(O)ccc12 [raloxifene]
tumor stabilization (non-progression), leveling off of rising serum PSA ([1]; majority of patients treated): tumor stabilization occurred | mean tumor volume vs control group (FIG. 1A) [3]: reduction in mean tumor volume; also recorded: tumors were smaller | mean tumor weight vs control group (FIG. 1B) [3]: reduction in mean tumor weight | PSA (per tumor volume) (FIG. 3) ([4]; MSKPC9 tumor xenografts, raloxifene treatment): increasing | levels of PSA in the blood of implanted animals (FIG. 3) ([4]; MSKPC9 xenograft animals treated with raloxifene): rising PSA levels | ER-β mRNA, difference between treatment groups [5]: no difference | improvement in soft tissue or bone disease ([6]; 60 mg oral daily): No improvement in soft tissue or bone disease was observed | median time to disease progression ([6]; 60 mg oral daily): 8.3 weeks | patients with progressive disease at the first evaluation time point ([6]; 60 mg oral daily): thirteen of the eighteen | patients with stable disease at the first evaluation time point ([6]; 60 mg oral daily): five of eighteen | time to disease progression, range ([6]; 60 mg oral daily): 2.9-24.71 weeks | progression of soft tissue or osseous disease ([6]; 60 mg oral daily, first evaluation time point): No progression of soft tissue or osseous disease was observed | patients alive ([6]; as of July, 2003, 19 of 21): 90% | median survival ([6]; at time of analysis (November, 2002)): 10.5 months | patients discontinued due to progressive disease (rising PSA) at the second evaluation point ([6]; of the five patients with stable disease): four | severity of most drug related toxicities reported ([7]; 60 mg oral daily): mild (grade 1-2) | tolerability ([7]; 60 mg oral daily, with low dose COUMADIN): well tolerated | Patients experiencing drug-related toxicity: Anemia ([7]; Grade 1): 2 patients | Patients experiencing drug-related toxicity: Arthralgia/Myalgia ([7]; Grade 1): 2 patients | Patients experiencing drug-related toxicity: Bicarbonate ([7]; Grade 1): 1 patients | Patients experiencing drug-related toxicity: Bone Pain ([7]; Grade 1): 1 patients | Patients experiencing drug-related toxicity: Diarrhea ([7]; Grade 1): 1 patients | Patients experiencing drug-related toxicity: Edema ([7]; Grade 1): 1 patients | Patients experiencing drug-related toxicity: Fatigue/Malaise ([7]; Grade 1): 1 patients | Patients experiencing drug-related toxicity: Hematuria ([7]; Grade 1): 1 patients | Patients experiencing drug-related toxicity: Hot flashes ([7]; Grade 1): 2 patients | Patients experiencing drug-related toxicity: Hypercholesterolemia ([7]; Grade 1): 2 patients | Patients experiencing drug-related toxicity: Hyperglycemia ([7]; Grade 1): 1 patients | Patients experiencing drug-related toxicity: Hypoalbuminemia ([7]; Grade 1): 2 patients | Patients experiencing drug-related toxicity: Hypoglycemia ([7]; Grade 1): 1 patients | Patients experiencing drug-related toxicity: Increased Alkaline Phosphatase ([7]; Grade 1): 3 patients | Patients experiencing drug-related toxicity: Increased Creatinine ([7]; Grade 1): 1 patients | Patients experiencing drug-related toxicity: Increased SGOT (AST) ([7]; Grade 1): 1 patients | Patients experiencing drug-related toxicity: Nausea/Vomiting ([7]; Grade 1): 1 patients | Patients experiencing drug-related toxicity: Rash ([7]; Grade 1): 1 patients | Patients experiencing drug-related toxicity: UTI ([7]; Grade 1): 1 patients | Patients experiencing drug-related toxicity: Anemia ([7]; Grade 2): 1 patients | Patients experiencing drug-related toxicity: Bone Pain ([7]; Grade 2): 1 patients | Patients experiencing drug-related toxicity: Constipation ([7]; Grade 2): 2 patients | Patients experiencing drug-related toxicity: Fatigue/Malaise ([7]; Grade 2): 1 patients | Patients experiencing drug-related toxicity: Hypertriglyceridemia ([7]; Grade 2): 1 patients | Patients experiencing drug-related toxicity: Hypotension ([7]; Grade 2): 1 patients | Patients experiencing drug-related toxicity: Nausea/Vomiting ([7]; Grade 2): 1 patients | Patients experiencing drug-related toxicity: Arthralgia/Myalgia ([7]; Grade 3): 1 patients | Patients experiencing drug-related toxicity: Hyperglycemia ([7]; Grade 3): 1 patients | Patients experiencing drug-related toxicity: Increased Creatinine ([7]; Grade 3): 1 patients | tolerability in previous clinical studies [8]: well tolerated

CC/C(=C(\c1ccccc1)c1ccc(OCCN(C)C)cc1)c1ccccc1 [tamoxifen]
effect on androgen-independent prostate cancer [9]: no effect
